Active and inactive are the calls of the source.
Experiments:
[1] = target: Serine/threonine-protein phosphatase PP1-alpha catalytic subunit (Homo sapiens, UniProt P62136); experiment: PP1 phosphatase inhibitors, dose response, biochemical, fluorescence (AID 2394)
[2] = target: Serine/threonine-protein phosphatase (Homo sapiens, UniProt Q9BPW0); experiment: PP5 phosphatase inhibitors, dose response, biochemical, fluorescence (AID 2395)
[3] = target: Heat shock protein HSP 90-alpha (Homo sapiens, UniProt P07900); format: functional, organism-based
[4] = microbe, parasite or virus in culture; format: functional; conditions: Mycobacterium tuberculosis
[5] = Luminescence-based dose response cell-based high throughput screening assay for cytotoxic compounds using the IEC-6 intestinal epithelial cell line. [Related pubchem assays: 1858 (Summary AID.), 1825 (Counterscreen.), 1907 (Confirmation screen.)]; format: functional
[6] = system: BJ; experiment: cytotoxicity toward Ras-transformed BJeLR fibroblasts, dose response, cell-based, alamar blue fluorescence, cherrypicked samples (AID 2631); format: functional; conditions: Homo sapiens;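 also: confirmatory dose-response assay in RAS-dependent BJ fibroblasts engineered with TERT, LT and ST, with cytotoxicity read by fluorescence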
[7] = system: Escherichia coli; experiment: microbe, parasite or virus in culture
[8] = system: BJ; experiment: cytotoxicity toward BJ-TERT-LT-ST fibroblasts, dose response, cell-based, RAS-independent, luminescence (AID 1935); format: functional; conditions: Homo sapiens;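 also: BJ fibroblasts immortalized with TERT plus LT and ST oncogenes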
[9] = system: BJ; experiment: cells; format: functional, cell-based; conditions: Homo sapiens
[10] = system: Escherichia coli; experiment: microbe, parasite or virus in culture; remark: listed apart in the source
[11] = target: T1, Type-1 angiotensin II receptor (Homo sapiens, UniProt P30556); experiment: AT1 receptor antagonists, dose response, selectivity assay for APJ receptor antagonist project, cell-based, uHTS hits (AID 463214); format: functional;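 also: antagonist potency against angiotensin II stimulated AT1 response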
T1 sequence (P30556 whole entry): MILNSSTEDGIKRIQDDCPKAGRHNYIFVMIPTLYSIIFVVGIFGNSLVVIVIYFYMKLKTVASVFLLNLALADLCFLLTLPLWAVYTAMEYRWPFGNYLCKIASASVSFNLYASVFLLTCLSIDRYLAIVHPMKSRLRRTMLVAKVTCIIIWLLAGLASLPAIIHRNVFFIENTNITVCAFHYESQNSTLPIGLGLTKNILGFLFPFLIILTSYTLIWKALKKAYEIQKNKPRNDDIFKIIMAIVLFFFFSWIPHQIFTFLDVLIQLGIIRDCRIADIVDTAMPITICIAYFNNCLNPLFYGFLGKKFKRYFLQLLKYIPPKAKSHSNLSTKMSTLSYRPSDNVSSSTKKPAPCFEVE

[12] = system: Vero; experiment: host cell cytotoxicity of antiviral hits, dose response, cytotoxicity control for West Nile virus antiviral project, secondary assay (AID 1650); format: functional; conditions: Chlorocebus sabaeus
[13] = target: Beta-galactosidase (Escherichia coli, UniProt Q8VNN2); experiment: PubChem AID 485352; format: functional
Sequence of Beta-galactosidase (Q8VNN2 whole entry): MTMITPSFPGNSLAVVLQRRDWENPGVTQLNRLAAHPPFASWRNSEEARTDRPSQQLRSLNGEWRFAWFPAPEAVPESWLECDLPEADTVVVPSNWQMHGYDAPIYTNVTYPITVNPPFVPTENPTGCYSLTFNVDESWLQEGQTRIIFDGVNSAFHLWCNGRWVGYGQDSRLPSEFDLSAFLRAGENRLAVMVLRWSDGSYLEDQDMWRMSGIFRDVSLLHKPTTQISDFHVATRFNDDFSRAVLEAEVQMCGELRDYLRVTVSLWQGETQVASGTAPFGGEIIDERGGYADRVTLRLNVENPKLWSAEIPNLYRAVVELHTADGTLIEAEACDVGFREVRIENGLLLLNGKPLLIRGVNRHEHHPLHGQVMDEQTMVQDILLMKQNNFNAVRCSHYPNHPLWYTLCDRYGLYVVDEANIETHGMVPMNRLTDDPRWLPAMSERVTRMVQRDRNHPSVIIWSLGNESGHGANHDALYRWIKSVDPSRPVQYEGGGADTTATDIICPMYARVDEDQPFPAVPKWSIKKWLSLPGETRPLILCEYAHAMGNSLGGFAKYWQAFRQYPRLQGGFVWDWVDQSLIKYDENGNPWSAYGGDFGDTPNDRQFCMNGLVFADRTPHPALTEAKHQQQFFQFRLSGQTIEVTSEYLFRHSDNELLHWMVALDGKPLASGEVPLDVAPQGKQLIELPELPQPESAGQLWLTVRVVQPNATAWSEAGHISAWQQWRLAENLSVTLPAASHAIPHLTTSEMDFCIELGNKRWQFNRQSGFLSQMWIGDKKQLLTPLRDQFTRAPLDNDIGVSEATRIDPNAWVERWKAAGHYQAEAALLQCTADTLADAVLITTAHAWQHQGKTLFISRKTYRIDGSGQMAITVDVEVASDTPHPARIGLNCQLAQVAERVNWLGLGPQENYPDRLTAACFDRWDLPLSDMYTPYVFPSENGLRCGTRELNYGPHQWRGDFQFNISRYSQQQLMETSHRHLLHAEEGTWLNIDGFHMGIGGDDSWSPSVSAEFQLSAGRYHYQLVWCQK

[14] = system: BJ; experiment: cytotoxicity toward BJ-TERT fibroblasts, dose response, cell-based, RAS-independent, luminescence (AID 1933); format: functional; conditions: Homo sapiens
[15] = cytotoxicity toward DRD oncogenic fibroblasts, dose response, cell-based, non-viral oncogenic, luminescence (AID 1934); format: functional; conditions: Homo sapiens
[16] = system: Vero; experiment: cytotoxicity of synthesized analogs in Vero 76, SAR follow-up, cytotoxicity control for West Nile virus antiviral project, Vero 76 cells (AID 2414); format: functional; conditions: Chlorocebus sabaeus
[17] = A Cell Based Assay for the Identification of Probe candidate Compounds with Anti- Venezuelan Equine Encephalitis virus. [Related pubchem assays: 2409, 2419, 1621, 2238, 2405, 2024, 2065, 2402, 2414, 1635, 1650, 2244 ]; format: functional
[18] = system: Vero; experiment: cytotoxicity of synthesized analogs in Vero cells, SAR follow-up, cytotoxicity control for West Nile virus antiviral project, cell-based, set II (AID 2402); format: functional; conditions: Chlorocebus sabaeus
[19] = M. tuberculosis growth inhibition, HTS (AID 449762); format: functional
[20] = target: Glyceraldehyde-3-phosphate dehydrogenase (Homo sapiens, UniProt P04406)
Sequence of Glyceraldehyde-3-phosphate dehydrogenase (P04406 whole entry): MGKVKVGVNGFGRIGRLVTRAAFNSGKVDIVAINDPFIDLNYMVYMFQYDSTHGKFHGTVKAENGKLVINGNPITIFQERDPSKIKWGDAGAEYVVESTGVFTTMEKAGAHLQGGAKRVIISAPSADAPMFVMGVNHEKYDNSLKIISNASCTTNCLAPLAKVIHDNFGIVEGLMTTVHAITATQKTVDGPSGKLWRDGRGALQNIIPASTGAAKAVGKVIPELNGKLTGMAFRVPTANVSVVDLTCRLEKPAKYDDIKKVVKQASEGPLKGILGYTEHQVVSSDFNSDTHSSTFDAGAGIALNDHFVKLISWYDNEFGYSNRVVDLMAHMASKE

[21] = target: T2, Bcl-2-related protein A1 (Mus musculus, UniProt Q07440); experiment: Bfl-1 binding inhibitors, SAR follow-up, biochemical, fluorescence polarization (AID 1070)
T2 sequence (Q07440 whole entry): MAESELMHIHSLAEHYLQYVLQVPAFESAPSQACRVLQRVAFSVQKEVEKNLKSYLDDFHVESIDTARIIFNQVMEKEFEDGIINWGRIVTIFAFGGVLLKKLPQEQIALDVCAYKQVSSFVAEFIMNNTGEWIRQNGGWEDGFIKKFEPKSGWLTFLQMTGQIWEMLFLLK

[22] = target: T2, Bcl-2-related protein A1; experiment: Bfl-1 inhibitors blocking BH3 peptide binding, confirmation, biochemical, TR-FRET, mouse Bfl-1 (AID 621);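 also: TR-FRET binding of GST-Bfl-1 to FITC-labelled Bid peptide via terbium antibody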

Sequence of Serine/threonine-protein phosphatase PP1-alpha catalytic subunit (P62136 whole entry): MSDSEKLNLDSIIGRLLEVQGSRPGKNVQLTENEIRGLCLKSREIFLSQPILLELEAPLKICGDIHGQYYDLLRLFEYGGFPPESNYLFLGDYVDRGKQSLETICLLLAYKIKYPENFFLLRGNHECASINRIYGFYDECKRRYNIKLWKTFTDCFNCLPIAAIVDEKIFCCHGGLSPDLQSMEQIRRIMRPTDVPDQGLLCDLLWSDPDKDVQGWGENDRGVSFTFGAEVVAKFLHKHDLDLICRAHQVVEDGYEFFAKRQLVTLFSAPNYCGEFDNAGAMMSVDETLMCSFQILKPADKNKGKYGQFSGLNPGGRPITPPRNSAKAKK
Sequence of Serine/threonine-protein phosphatase (Q9BPW0 whole entry): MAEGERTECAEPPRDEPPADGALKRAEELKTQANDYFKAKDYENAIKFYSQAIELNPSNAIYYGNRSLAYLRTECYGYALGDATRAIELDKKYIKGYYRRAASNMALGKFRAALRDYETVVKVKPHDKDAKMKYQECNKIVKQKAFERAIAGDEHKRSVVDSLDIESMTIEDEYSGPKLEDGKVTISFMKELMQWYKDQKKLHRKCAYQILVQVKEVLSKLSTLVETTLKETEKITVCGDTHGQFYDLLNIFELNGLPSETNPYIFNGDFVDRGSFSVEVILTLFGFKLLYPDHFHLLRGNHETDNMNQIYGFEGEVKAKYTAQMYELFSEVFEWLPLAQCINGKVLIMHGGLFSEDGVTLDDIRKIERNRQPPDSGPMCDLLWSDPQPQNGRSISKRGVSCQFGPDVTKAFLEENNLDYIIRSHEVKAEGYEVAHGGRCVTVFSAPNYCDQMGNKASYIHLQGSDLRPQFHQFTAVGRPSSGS

With `COCCNC(=O)c1c(N)n(CCC(C)C)c2nc3ccccc3nc12` the IC50 [1] was 56.5 µM (not active) and the IC50 [2] was 13.4 µM (not active).
With `Cc1ccc(C(=O)Sc2cccccc2=O)cc1` the AC50 [3] was 6.06 µM (active), the CC50 [4] was 11.5 µM (active) and the IC50 [5] was 0.848 µM (active). The EC50 [6] was 0.075 µM (active), the AC50 [7] was 12.7 µM (active) and the EC50 [8] was 54.9 µM (active). For the same compound, the EC50 [9] was 26 µM (active), the AC50 [10] was 17 µM (active) and the IC50 [11] was < 1.25 µM (active). The CC50 [12] was 48.4 µM (active), the EC50 [13] was > 40 µM (inactive) and the EC50 [14] was 0.659 µM (inconclusive). For the same compound, the EC50 [15] was 25.5 µM (active).
For `COc1cccc2c(=O)n(-c3ccccc3)c(SCC(=O)Nc3ccc4c(c3)CCC4)nc12`, the CC50 [16] was < 0.26 µM (active), the IC50 [17] was < 0.26 µM (active) and the CC50 [18] was > 200 µM (active).
With `CN1CCN(c2ccc(C(=O)c3cn(-c4ccc(F)c(Cl)c4)nn3)cc2)CC1` the CC50 [4] was 15 µM (active) and the IC50 [19] was > 100 µM (active).
For `O=C1C(Cl)=C(Nc2ccc(F)cc2)C(=O)N1c1ccc(Cl)c(Cl)c1`, the IC50 [20] was > 100 µM (not active), the IC50 [21] was > 100 µM (not active) and the IC50 [22] was 96.5 µM (active).
